Data set [1] has as its target Proto-oncogene tyrosine-protein kinase Src (Homo sapiens, UniProt P12931). Kind of data set: Inhibition of c-Src tyrosine kinase.
Data set [2] deals with Tyrosine-protein kinase Lck (Homo sapiens, UniProt P06239). As to the kind of experiment: Inhibition of p56 Lck kinase against 100 uM cdc2 substrate.
For data set [3], the target named is Tyrosine-protein kinase Lyn (Homo sapiens, UniProt P07948). Kind of data set: Inhibition of Lyn kinase against 100 uM cdc2 substrate.
Chain of Tyrosine-protein kinase Lyn (P07948 whole entry): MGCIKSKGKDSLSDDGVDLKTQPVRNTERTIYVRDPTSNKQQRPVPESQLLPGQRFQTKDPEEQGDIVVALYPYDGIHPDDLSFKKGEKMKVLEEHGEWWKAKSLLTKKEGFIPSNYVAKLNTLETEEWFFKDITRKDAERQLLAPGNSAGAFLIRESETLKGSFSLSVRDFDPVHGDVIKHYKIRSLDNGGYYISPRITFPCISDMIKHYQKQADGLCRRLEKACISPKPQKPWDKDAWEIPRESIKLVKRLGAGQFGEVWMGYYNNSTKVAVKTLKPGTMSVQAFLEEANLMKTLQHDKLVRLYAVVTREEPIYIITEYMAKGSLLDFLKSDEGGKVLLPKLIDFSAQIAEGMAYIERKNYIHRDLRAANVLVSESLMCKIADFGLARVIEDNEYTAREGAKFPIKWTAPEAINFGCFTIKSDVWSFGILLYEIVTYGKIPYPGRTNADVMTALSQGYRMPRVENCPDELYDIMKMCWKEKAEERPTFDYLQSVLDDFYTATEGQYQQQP
For data set [4], the system named is CC[C@H](C)[C@H](NC(=O)[C@@H](N)Cc1ccc(O)cc1)C(=O)N[C@@H](Cc1ccc(O)cc1)C(=O)NCC(=O)N[C@@H](CO)C(=O)N[C@@H](Cc1ccccc1)C(=O)N[C@@H](CCCCN)C(N)=O. As to the kind of experiment: Inhibition of c-Src tyrosine kinase against 55 uM YIYGSFK-NH2 substrate. Conditions: Homo sapiens.

Chain of Tyrosine-protein kinase Lck (P06239 whole entry): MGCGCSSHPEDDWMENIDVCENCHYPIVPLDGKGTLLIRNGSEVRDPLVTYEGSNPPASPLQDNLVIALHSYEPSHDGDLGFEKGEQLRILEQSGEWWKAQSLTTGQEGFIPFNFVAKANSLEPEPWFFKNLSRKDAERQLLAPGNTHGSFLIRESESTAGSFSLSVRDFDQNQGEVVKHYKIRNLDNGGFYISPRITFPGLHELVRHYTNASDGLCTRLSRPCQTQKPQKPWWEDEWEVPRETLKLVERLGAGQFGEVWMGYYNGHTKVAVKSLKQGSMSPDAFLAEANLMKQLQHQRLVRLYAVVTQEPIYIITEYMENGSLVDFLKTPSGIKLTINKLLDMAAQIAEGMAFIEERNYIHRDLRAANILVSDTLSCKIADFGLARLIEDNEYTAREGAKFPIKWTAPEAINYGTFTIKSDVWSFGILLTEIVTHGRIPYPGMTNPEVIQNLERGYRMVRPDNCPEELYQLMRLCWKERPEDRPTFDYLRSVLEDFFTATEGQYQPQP

The IC50 is the concentration at which inhibition is half-maximal. A low value points to greater potency. `CC1(C)SSC[C@@H](C(=O)N[C@@H](CCCCN)C(=O)N[C@@H](CCCN=C(N)N)C(N)=O)NC(=O)[C@H](Cc2ccccc2)NC(=O)[C@H](CO)NC(=O)CNC(=O)[C@H](Cc2ccc(O)cc2)NC(=O)[C@H]1N`: the 50% inhibitory concentration (IC50) in data set [1] is 20 µM.
On to `C[C@H](c1ccc2ccccc2c1)[C@@H]1NC(=O)[C@H](NC(=O)[C@@H](N)Cc2ccc(O)cc2)C(C)(C)SSC[C@@H](C(=O)N[C@@H](CCCCN)C(=O)N[C@@H](CCCNC(=N)N)C(N)=O)NC(=O)[C@H](Cc2ccccc2)NC(=O)[C@H](CO)NC(=O)CNC1=O`, for which the IC50 in data set [2] was 220 µM.
`C[C@@H](c1ccc2ccccc2c1)[C@@H]1NC(=O)[C@H](NC(=O)[C@@H](N)Cc2ccc(O)cc2)C(C)(C)SSC[C@@H](C(=O)N[C@@H](CCCCN)C(=O)N[C@@H](CCCNC(=N)N)C(N)=O)NC(=O)[C@H](Cc2ccccc2)NC(=O)[C@H](CO)NC(=O)CNC1=O` yielded a half-maximal inhibitory concentration (IC50) in data set [2] of 260 µM.
Turning to `CC1(C)SSC[C@@H](C(=O)N[C@@H](CCCCN)C(=O)N[C@@H](CCCNC(=N)N)C(N)=O)NC(=O)[C@H](Cc2ccccc2)NC(=O)[C@H](CO)NC(=O)CNC(=O)[C@H](Cc2ccc(O)c(I)c2)NC(=O)[C@@H]1NC(=O)[C@@H](N)Cc1ccc(O)cc1`, the 50% inhibitory concentration (IC50) in data set [3] is above 800 µM; in data set [2] it was 11 µM.
Turning to `CC(C)(S)[C@H](NC(=O)[C@@H](N)Cc1ccc(O)cc1)C(=O)N[C@@H](Cc1ccc2ccccc2c1)C(=O)NCC(=O)N[C@@H](CO)C(=O)N[C@@H](Cc1ccccc1)C(=O)N[C@@H](CS)C(=O)N[C@@H](CCCCN)C(=O)N[C@@H](CCCCN)C(N)=O`, half-maximal inhibition in data set [1] (IC50) required 2.7 µM.
The same measure, in the same setting: the value for `CC(=O)N[C@@H]1C(=O)N[C@@H](Cc2ccc(O)cc2)C(=O)NCC(=O)N[C@@H](CO)C(=O)N[C@@H](Cc2ccccc2)C(=O)N[C@H](C(=O)N[C@@H](CCCCN)C(=O)N[C@@H](CCCN=C(N)N)C(N)=O)CSSC1(C)C` was 11 µM.
The compound `C[C@H](c1ccc2ccccc2c1)[C@H]1NC(=O)[C@H](NC(=O)[C@@H](N)Cc2ccc(O)cc2)C(C)(C)SSC[C@@H](C(=O)N[C@@H](CCCCN)C(=O)N[C@@H](CCCNC(=N)N)C(N)=O)NC(=O)[C@H](Cc2ccccc2)NC(=O)[C@H](CO)NC(=O)CNC1=O` gave an IC50 in data set [2] of 470 µM.
With `CC1(C)SSC[C@@H](C(=O)N[C@@H](CCCCN)C(=O)N[C@@H](CCCN=C(N)N)C(N)=O)NC(=O)[C@H](Cc2ccccc2)NC(=O)[C@H](CO)NC(=O)CNC(=O)[C@H](Cc2cc(I)c(O)c(I)c2)NC(=O)[C@@H]1NC(=O)[C@@H](N)Cc1ccc(O)cc1`, the concentration for half-maximal inhibition (IC50) in data set [3] is above 800 µM; in data set [2] it was 11 µM.
The Km is the substrate concentration at which the rate is half of its maximum. As for “Proto-oncogene tyrosine-protein kinase Src (Homo sapiens) (from UniProt P12931)”, the Michaelis-Menten constant (Km) in data set [4] stood at 55 µM.
The compound `CC(C)(S)[C@H](NC(=O)[C@@H](N)Cc1ccc(O)cc1)C(=O)N[C@@H](Cc1ccc(O)cc1)C(=O)NCC(=O)N[C@@H](CO)C(=O)N[C@@H](Cc1ccccc1)C(=O)N[C@@H](CS)C(=O)N[C@@H](CCCCN)C(=O)N[C@@H](CCCCN)C(N)=O` came in with an IC50 in data set [1] of 5.3 µM.
On to `CC(=O)N[C@@H]1C(=O)N[C@@H](Cc2ccc(O)cc2)C(=O)NCC(=O)N[C@@H](CO)C(=O)N[C@@H](Cc2ccccc2)C(=O)N[C@H](C(=O)N[C@@H](CCCCN)C(=O)N[C@@H](CCCCN)C(N)=O)CSSC1(C)C`, for which, in data set [1], the IC50 came out at 20 µM.
For the compound `CC1(C)SSC[C@@H](C(=O)N[C@@H](CCCCN)C(=O)N[C@@H](CCCCN)C(N)=O)NC(=O)[C@H](Cc2ccccc2)NC(=O)[C@H](CO)NC(=O)CNC(=O)[C@H](Cc2ccc(O)cc2)NC(=O)[C@H]1N`, the half-maximal inhibitory concentration (IC50) in data set [1] was 14.4 µM.
In turn, `CC1(C)SSC[C@@H](C(=O)N[C@@H](CCCCN)C(=O)N[C@@H](CCCNC(=N)N)C(N)=O)NC(=O)[C@H](Cc2ccccc2)NC(=O)[C@H](CO)NC(=O)CNC(=O)[C@H](Cc2ccc(O)cc2)NC(=O)[C@H]1NC(=O)[C@@H](N)Cc1ccc(O)cc1` showed an IC50 in data set [1] of 1.2 µM.
Same read-out and setting: the result for `CC[C@H](C)[C@@H]1NC(=O)[C@@H](N)CSSC[C@@H](C(=O)N[C@@H](CCCCN)C(=O)N[C@@H](CCCCN)C(=O)O)NC(=O)[C@H](Cc2ccccc2)NC(=O)[C@H](CO)NC(=O)CNC(=O)[C@H](Cc2ccc(O)cc2)NC1=O` reads 2.7 µM.
As for `CC(=O)N[C@@H](Cc1ccc(O)cc1)C(=O)N[C@@H]1C(=O)N[C@@H](Cc2ccc(O)cc2)C(=O)NCC(=O)N[C@@H](CO)C(=O)N[C@@H](Cc2ccccc2)C(=O)N[C@H](C(=O)N[C@@H](CCCCN)C(=O)N[C@@H](CCCN=C(N)N)C(N)=O)CSSC1(C)C`, it took 6.5 µM to reach half-maximal inhibition in data set [1] (IC50).
`CC1(C)SSC[C@@H](C(=O)N[C@@H](CCCNC(=N)N)C(N)=O)NC(=O)[C@H](Cc2ccccc2)NC(=O)[C@H](CO)NC(=O)CNC(=O)[C@H](Cc2ccc(O)cc2)NC(=O)[C@H]1NC(=O)[C@@H](N)Cc1ccc(O)cc1`: in data set [1], the IC50 came to 4.5 µM.
Take `CC1(C)SSC[C@@H](C(=O)N[C@@H](CCCNC(=N)N)C(N)=O)NC(=O)[C@H](Cc2ccccc2)NC(=O)[C@H](CO)NC(=O)CNC(=O)[C@H](Cc2ccc3ccccc3c2)NC(=O)[C@@H]1NC(=O)[C@@H](N)Cc1ccc(O)cc1`: in data set [1], the concentration for half-maximal inhibition (IC50) was found to be 3.3 µM.
Consider `C[C@@H](c1ccc2ccccc2c1)[C@H]1NC(=O)[C@H](NC(=O)[C@@H](N)Cc2ccc(O)cc2)C(C)(C)SSC[C@@H](C(=O)N[C@@H](CCCCN)C(=O)N[C@@H](CCCNC(=N)N)C(N)=O)NC(=O)[C@H](Cc2ccccc2)NC(=O)[C@H](CO)NC(=O)CNC1=O`, for which the IC50 in data set [2] is 260 µM.
Compound `C[C@H]1NC(=O)[C@H](Cc2ccc(O)cc2)NC(=O)[C@@H](NC(=O)[C@@H](N)Cc2ccc(O)cc2)C(C)(C)SSC[C@@H](C(=O)N[C@@H](CCCCN)C(=O)N[C@@H](CCCCN)C(N)=O)NC(=O)[C@H](Cc2ccccc2)NC(=O)[C@H](CO)NC1=O` yielded an IC50 in data set [1] of 18 µM.
Regarding `CC1(C)SSC[C@@H](C(=O)N[C@@H](CCCCN)C(N)=O)NC(=O)[C@H](Cc2ccccc2)NC(=O)[C@H](CO)NC(=O)CNC(=O)[C@H](Cc2ccc(O)cc2)NC(=O)[C@H]1NC(=O)[C@@H](N)Cc1ccc(O)cc1`, half-maximal inhibition in data set [1] (IC50) required 6.7 µM.
The same measure, in the same setting: the result for `CC[C@H](C)[C@H](NC(=O)[C@@H](N)CS)C(=O)N[C@@H](Cc1ccc(O)cc1)C(=O)NCC(=O)N[C@@H](CO)C(=O)N[C@@H](Cc1ccccc1)C(=O)N[C@@H](CS)C(=O)N[C@@H](CCCCN)C(=O)N[C@@H](CCCCN)C(N)=O` reads 6.9 µM.
On the same count and under the same terms, the value for `CC(=O)N[C@@H](Cc1ccc(O)cc1)C(=O)N[C@@H]1C(=O)N[C@@H](Cc2ccc(O)cc2)C(=O)NCC(=O)N[C@@H](CO)C(=O)N[C@@H](Cc2ccccc2)C(=O)N[C@H](C(=O)N[C@@H](CCCCN)C(=O)N[C@@H](CCCCN)C(N)=O)CSSC1(C)C` was 26 µM.

For the origin of these results see ChEMBL document CHEMBL1131256, “Discovery of a novel series of potent and selective substrate-based inhibitors of p60c-src protein tyrosine kinase: conformational and topographical constraints in peptide design” (J Med Chem, 1998).
